Reference: patent US9409905B2, “Antibacterial compounds and methods for use” (PTC THERAPEUTICS, INC., priority 2011, dated 2016)
Values after ≈ are worked out from the molar mass of the structure shown.

Columns and labels:
[1] = test system: Neisseria meningitidis (N. meningitidis) 13090; test: Antibacterial activity, MIC (Table 8); assay type: cell-based
From the text: (§1) The antibacterial activity from a microbroth dilution method may be presented as the minimum inhibitory concentration (MIC in μg/mL). The MIC value is the lowest concentration of drug which prevents macroscopically visible growth under test conditions.
(§2) Antibacterial activity of test compounds against the Gram-negative bacteria Haemophilus influenzae (H. influenzae) 49247 is shown in Table 6, Moraxella catarrhalis (M. catarrhalis) 25238 is shown in Table 7 and Neisseria meningitidis (N. meningitidis) 13090 is shown in Table 8.

[2] = test system: E. coli 25922; test: Antibacterial activity, microbroth dilution MIC (Table 1); assay type: cell-based, Escherichia coli; conditions: Escherichia coli; microbroth dilution; control Gram-negative E. coli 25922 strain; read-out: MIC, 25922
Summary of the method: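 Broth microdilution against S. aureus 29213, E. coli 25922 and hypersensitive E. coli BAS849. MIC in μg/mL is the lowest drug concentration preventing macroscopically visible growth under test conditions.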

[3] = test system: Staphylococcus aureus (S. aureus) 29213; test: as above; assay type: cell-based; conditions: microbroth dilution, Gram-positive S. aureus 29213, read-out: MIC, 29213
Summary of the method: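 Values are MICs (μg/mL): the smallest drug amount at which macroscopically visible bacterial growth is absent under assay conditions, from a microdilution method in broth.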

[4] = test system: Escherichia coli (E. coli) BAS849; test: as above; assay type: cell-based; conditions: microbroth dilution, super sensitive Gram-negative E. coli BAS849, read-out: MIC, BAS849
Summary of the method: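 Growth inhibition by microbroth dilution. MIC = lowest μg/mL with no visible growth. Strain 25922 is the control Gram-negative; BAS849 is hypersensitive.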

[5] = test system: Pseudomonas aeruginosa (P. aeruginosa) 27853; test: Antibacterial activity, MIC (Table 5); assay type: cell-based; conditions: P. aeruginosa 27853, read-out: MIC, 27853
Summary of the method: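 Values are MICs in μg/mL, read as the lowest concentration at which no growth is visible by eye. They were determined by a microbroth dilution method.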

[6] = test system: E. coli ELZ4251; test: Antibacterial activity, MIC, multi-drug resistant clinical isolate (Table 3); assay type: cell-based; conditions: Escherichia coli
Summary of the method: (§3)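 Compounds were serially diluted in broth microdilution format and growth was scored visually; the MIC is the lowest concentration at which no macroscopically visible growth occurred, expressed in μg/mL.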

[7] = test system: E. coli ELZ4000; test: as above; assay type: cell-based; conditions: Escherichia coli, ELZ4000, read-out: MIC ELZ4000
Summary of the method: as §3

[8] = test system: Klebsiella pneumoniae (K. pneumoniae) 35657; test: Antibacterial activity, MIC (Table 4); assay type: cell-based; conditions: K. pneumoniae 35657, read-out: MIC, 35657
Summary of the method: (§4)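 Values are MICs in μg/mL, read as the lowest compound concentration at which no growth is visible by eye. They come from a microbroth dilution method.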

[9] = test system: Acinetobacter baumannii (A. baumannii) BAA747; test: Antibacterial activity, MIC (Table 4); assay type: cell-based; conditions: A. baumannii BAA747, read-out: MIC, BAA747
Summary of the method: as §4

[10] = test system: E. coli LZ3111; test: Antibacterial activity, MIC, quinolone resistant strain (Table 2); assay type: cell-based; conditions: Escherichia coli, LZ3111, read-out: MIC LZ3111
Summary of the method: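 MIC values (μg/mL) came from a microbroth dilution assay, scored as the lowest drug concentration at which no growth was visible by eye.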

[11] = test system: K. pneumoniae MXX1232; test: Antibacterial activity, MIC, resistant strain (Table 4); assay type: cell-based; conditions: Klebsiella pneumoniae, MXX1232; resistant K. pneumoniae MMX1232, multi-drug resistant clinical isolate; read-out: MIC, MMX1232
Summary of the method: as §4

[12] = test system: A. baumannii MXX2240; test: as above; assay type: cell-based; conditions: Acinetobacter baumannii, MXX2240; resistant A. baumannii MMX2240, multi-drug resistant clinical isolate; read-out: MIC, MMX2240
Summary of the method: as §4

[13] = test system: Haemophilus influenzae (H. influenzae) 49247; test: Antibacterial activity, MIC (Table 6); assay type: cell-based
From the text: as §1, §2

Structure (SMILES) | MIC [1] [µg/mL] | MIC [2] [µg/mL] | MIC [3] [µg/mL] | MIC [4] [µg/mL] | MIC [5] [µg/mL] | MIC [6] [µg/mL] | MIC [7] [µg/mL] | MIC [8] [µg/mL] | MIC [9] [µg/mL] | MIC [10] [µg/mL] | MIC [11] [µg/mL] | MIC [12] [µg/mL] | MIC [13] [µg/mL]
CCc1cc(C(=O)O)c(=O)[nH]c1-c1ccc2c(c1)cc(CN(C)C)n2C [Cpd 122, 6-(2-((dimethylamino)methyl)-1-methyl-1H-indol-5-yl)-5-ethyl-2-oxo-1,2-dihydropyridine-3-carboxylic acid] | < 1 | < 1 | 12.5 to 150 (≈ 35.4 to 424 µM) | < 1 | 3.5 to 12.5 (≈ 9.9 to 35.4 µM) | 12.5 to 150 (≈ 35.4 to 424 µM) | 12.5 to 150 (≈ 35.4 to 424 µM) | < 1 | < 1 | 12.5 to 150 (≈ 35.4 to 424 µM) | 12.5 to 150 (≈ 35.4 to 424 µM) | 12.5 to 150 (≈ 35.4 to 424 µM) | –
CCc1cc(C(=O)O)c(=O)[nH]c1-c1ccc2c(c1)cc(CO)n2C [Cpd 39, 5-ethyl-6-(2-(hydroxymethyl)-1-methyl-1H-indol-5-yl)-2-oxo-1,2-dihydropyridine-3-carboxylic acid] | < 1 | 1 to 3.5 (≈ 3.06 to 10.7 µM) | 3.5 to 12.5 (≈ 10.7 to 38.3 µM) | < 1 | – | 12.5 to 150 (≈ 38.3 to 460 µM) | 12.5 to 150 (≈ 38.3 to 460 µM) | – | – | 12.5 to 150 (≈ 38.3 to 460 µM) | – | – | < 1
Cn1ccc2cc(-c3[nH]c(=O)c(C(=O)O)cc3C3CC3)ccc21 [Cpd 35, 5-cyclopropyl-6-(1-methyl-1H-indol-5-yl)-2-oxo-1,2-dihydropyridine-3-carboxylic acid] | < 1 | 1 to 3.5 (≈ 3.24 to 11.4 µM) | 12.5 to 150 (≈ 40.5 to 486 µM) | < 1 | – | 12.5 to 150 (≈ 40.5 to 486 µM) | 12.5 to 150 (≈ 40.5 to 486 µM) | – | – | 12.5 to 150 (≈ 40.5 to 486 µM) | – | – | < 1
Cc1c(-c2ccc3c(c2)cc(CNC2CCC2)n3C)[nH]c(=O)c(C(=O)O)c1O [Cpd 354, 6-(2-((cyclobutylamino)methyl)-1-methyl-1H-indol-5-yl)-4-hydroxy-5-methyl-2-oxo-1,2-dihydropyridine-3-carboxylic acid] | < 1 | 1 to 3.5 (≈ 2.62 to 9.18 µM) | 12.5 to 150 (≈ 32.8 to 393 µM) | < 1 | 12.5 to 150 (≈ 32.8 to 393 µM) | < 1 | 3.5 to 12.5 (≈ 9.18 to 32.8 µM) | 1 to 3.5 (≈ 2.62 to 9.18 µM) | 1 to 3.5 (≈ 2.62 to 9.18 µM) | < 1 | 12.5 to 150 (≈ 32.8 to 393 µM) | < 1 | –
CNC1Cc2cc3cc(-c4[nH]c(=O)c(C(=O)O)c(O)c4C)ccc3n2C1.Cl (stereo not shown) [Cpd 415, 4-hydroxy-5-methyl-6-(2-(methylamino)-2,3-dihydro-1H-pyrrolo[1,2-a]indol-7-yl)-2-oxo-1,2-dihydropyridine-3-carboxylic acid hydrochloride] | 1 to 3.5 | 3.5 to 12.5 | 12.5 to 150 | 1 to 3.5 | 12.5 to 150 | 1 to 3.5 | 3.5 to 12.5 | 3.5 to 12.5 | 12.5 to 150 | < 1 | 12.5 to 150 | 3.5 to 12.5 | –
CCc1c(-c2ccc3cc[nH]c3c2)[nH]c(=O)c(C(=O)O)c1O [Cpd 423, 5-ethyl-4-hydroxy-6-(1H-indol-6-yl)-2-oxo-1,2-dihydropyridine-3-carboxylic acid] | < 1 | < 1 | 1 to 3.5 (≈ 3.35 to 11.7 µM) | < 1 | 3.5 to 12.5 (≈ 11.7 to 41.9 µM) | 1 to 3.5 (≈ 3.35 to 11.7 µM) | 3.5 to 12.5 (≈ 11.7 to 41.9 µM) | < 1 | < 1 | 1 to 3.5 (≈ 3.35 to 11.7 µM) | 12.5 to 150 (≈ 41.9 to 503 µM) | 1 to 3.5 (≈ 3.35 to 11.7 µM) | –
CCc1cc(C(=O)O)c(=O)[nH]c1-c1ccc2c(c1)OCCN2C [Cpd 3, 5-ethyl-6-(4-methyl-3,4-dihydro-2H-benzo[b][1,4]oxazin-7-yl)-2-oxo-1,2-dihydropyridine-3-carboxylic acid] | – | 1 to 3.5 (≈ 3.18 to 11.1 µM) | 12.5 to 150 (≈ 39.8 to 477 µM) | < 1 | 12.5 to 150 (≈ 39.8 to 477 µM) | 12.5 to 150 (≈ 39.8 to 477 µM) | 12.5 to 150 (≈ 39.8 to 477 µM) | 3.5 to 12.5 (≈ 11.1 to 39.8 µM) | 3.5 to 12.5 (≈ 11.1 to 39.8 µM) | 12.5 to 150 (≈ 39.8 to 477 µM) | 12.5 to 150 (≈ 39.8 to 477 µM) | 12.5 to 150 (≈ 39.8 to 477 µM) | < 1
